Results as given in ChEMBL document CHEMBL4765403, “Augmentation of the antitumor effects of PARP inhibitors in triple-negative breast cancer via degradation by hydrophobic tagging modulation” (Eur J Med Chem, 2020).
Activity calls are given as the source filed them. The calls are words filed in the database; no cut-off is given here.

Tests used:
MDA-MB-231 [1] = experiment: Induction of endoplasmic reticulum stress in human MDA-MB-231 cells assessed as upregulation in CHOP gene expression at 5 to 10 uM incubated for 24 to 48 hrs by RT-PCR analysis; format: functional, cell-based; details: dose 5-10 µM, time 24-48 hrs
[2] = target: Poly [ADP-ribose] polymerase 1 (Homo sapiens) (UniProt P09874); experiment: Induction of PARP1 degradation in triple-negative human MDA-MB-231 cells assessed as fold change in PARP1 protein expression at 5 uM incubated for 24 hrs by Western blot analysis relative to control; format: cell-based
Chain of Poly [ADP-ribose] polymerase 1 (Homo sapiens) (P09874 whole entry): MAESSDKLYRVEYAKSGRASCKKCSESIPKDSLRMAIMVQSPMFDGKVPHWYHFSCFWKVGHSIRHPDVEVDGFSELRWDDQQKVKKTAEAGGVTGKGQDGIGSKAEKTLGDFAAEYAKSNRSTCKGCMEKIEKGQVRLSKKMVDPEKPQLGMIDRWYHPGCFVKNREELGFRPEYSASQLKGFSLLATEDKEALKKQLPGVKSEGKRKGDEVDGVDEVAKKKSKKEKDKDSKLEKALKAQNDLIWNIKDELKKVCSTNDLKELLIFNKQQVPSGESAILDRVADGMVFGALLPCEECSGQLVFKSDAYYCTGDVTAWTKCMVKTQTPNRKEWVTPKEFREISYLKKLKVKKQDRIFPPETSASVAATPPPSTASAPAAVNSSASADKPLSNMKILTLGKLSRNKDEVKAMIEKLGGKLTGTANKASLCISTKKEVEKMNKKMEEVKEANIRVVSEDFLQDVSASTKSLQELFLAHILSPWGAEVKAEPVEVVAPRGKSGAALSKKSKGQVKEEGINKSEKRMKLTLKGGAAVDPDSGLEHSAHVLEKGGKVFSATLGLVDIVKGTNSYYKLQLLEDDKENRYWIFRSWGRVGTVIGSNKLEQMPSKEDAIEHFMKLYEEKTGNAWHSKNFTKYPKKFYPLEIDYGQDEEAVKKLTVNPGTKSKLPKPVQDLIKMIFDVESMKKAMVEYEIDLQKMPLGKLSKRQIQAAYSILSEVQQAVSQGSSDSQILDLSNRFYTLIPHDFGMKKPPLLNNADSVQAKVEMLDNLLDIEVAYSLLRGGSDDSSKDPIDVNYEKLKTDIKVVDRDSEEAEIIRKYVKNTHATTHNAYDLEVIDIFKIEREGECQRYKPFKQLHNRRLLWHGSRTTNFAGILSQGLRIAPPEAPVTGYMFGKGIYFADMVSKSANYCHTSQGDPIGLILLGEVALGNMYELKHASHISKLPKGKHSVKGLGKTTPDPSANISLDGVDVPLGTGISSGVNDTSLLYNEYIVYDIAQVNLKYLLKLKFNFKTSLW

MDA-MB-231 [3] = experiment: Induction of endoplasmic reticulum stress in human MDA-MB-231 cells assessed as upregulation in XBP-1s gene expression at 5 to 10 uM incubated for 24 to 48 hrs by RT-PCR analysis; format: functional, cell-based; details: dose 5-10 µM, time 24-48 hrs
MDA-MB-231 [4] = experiment: Induction of apoptosis in human MDA-MB-231 cells assessed as downregulation in Bcl2 gene expression at 5 to 10 uM incubated for 24 to 48 hrs by RT-PCR analysis; format: functional, cell-based; details: dose 5-10 µM, time 24-48 hrs
MDA-MB-231 [5] = experiment: Induction of apoptosis in human MDA-MB-231 cells assessed as apoptotic body formation at 5 uM incubated for 24 to 48 hrs by transmission electron microscopy; format: functional, cell-based; details: time 24-48 hrs
MDA-MB-231 [6] = experiment: Induction of apoptosis in human MDA-MB-231 cells assessed as increase in cytochrome C protein expression at 5 uM incubated for 24 to 48 hrs by Western blot analysis; format: functional, cell-based; details: time 24-48 hrs
[7] = target: Poly [ADP-ribose] polymerase 1 (Homo sapiens) (UniProt P09874); experiment: Induction of PARP1 degradation in human MDA-MB-468 cells assessed as fold change in PARP1 protein expression at 5 uM pretreated for 2 hrs with pan-caspase inhibitor, Z-VAD-FMK followed by incubation with compound for 48 hrs by Western blot analysis relative to control; format: cell-based
[8] = target: Poly [ADP-ribose] polymerase 1 (Homo sapiens) (UniProt P09874); experiment: Induction of PARP1 degradation in human MDA-MB-231 cells at 5 uM incubated for 48 hrs in presence of proteasome inhibitor, bortezomib by immunoblotting analysis; format: cell-based
[9] = target: Poly [ADP-ribose] polymerase 1 (Homo sapiens) (UniProt P09874); experiment: Induction of PARP1 degradation in triple-negative human MDA-MB-231 cells assessed as fold change in PARP1 protein expression at 0.5 uM incubated for 48 hrs by Western blot analysis relative to control; format: cell-based
[10] = target: Poly [ADP-ribose] polymerase 1 (Homo sapiens) (UniProt P09874); experiment: Induction of PARP1 degradation in triple-negative human MDA-MB-468 cells assessed as fold change in PARP1 protein expression at 5 uM incubated for 24 hrs by Western blot analysis relative to control; format: cell-based
[11] = target: Poly [ADP-ribose] polymerase 1 (Homo sapiens) (UniProt P09874); experiment: Induction of PARP1 degradation in human HCC1937 cells harboring BRCA mutation assessed as fold change in PARP1 protein expression at 5 uM incubated for 24 hrs by Western blot analysis relative to control; format: cell-based
MDA-MB-231 [12] = experiment: Induction of apoptosis in human MDA-MB-231 cells assessed as upregulation in PUMA gene expression at 5 to 10 uM incubated for 24 to 48 hrs by RT-PCR analysis; format: functional, cell-based; details: dose 5-10 µM, time 24-48 hrs
[13] = target: Poly [ADP-ribose] polymerase 1 (Homo sapiens) (UniProt P09874); experiment: Induction of PARP1 degradation in triple-negative human MDA-MB-231 cells assessed as fold change in PARP1 protein expression at 2.5 uM incubated for 48 hrs by Western blot analysis relative to control; format: cell-based
MDA-MB-468 [14] = experiment: Induction of autophagy in human MDA-MB-468 cells assessed as upregulation in LC3B protein expression at 5 uM measured after 48 hrs by Western blot analysis; format: functional, cell-based
MDA-MB-468 [15] = experiment: Induction of endoplasmic reticulum stress in human MDA-MB-468 cells assessed as increase in CHOP protein expression at 5 uM incubated for 48 hrs by Western blot analysis; format: functional, cell-based
MDA-MB-231 [16] = experiment: Induction of autophagy in human MDA-MB-231 cells assessed as autophagosome, large double membrane-bound vesicles enclosing cytoplasmic components formation at 5 uM incubated for 24 to 48 hrs by transmission electron microscopy; format: functional, cell-based; details: time 24-48 hrs
MDA-MB-468 [17] = experiment: Cytotoxicity against human MDA-MB-468 cells assessed as reduction in cell viability measured after 96 hrs by CCK8 assay; format: functional, cell-based; details: MDA-MB-468, 96 h
[18] = target: Poly [ADP-ribose] polymerase 1 (Homo sapiens) (UniProt P09874); experiment: Induction of PARP1 degradation in human MDA-MB-231 cells at 2.5 uM incubated for 48 hrs by Western blot analysis relative to control; format: cell-based
MDA-MB-468 [19] = experiment: Induction of apoptosis in human MDA-MB-468 cells assessed as decrease in Bcl2 protein expression at 5 uM incubated for 48 hrs by Western blot analysis; format: functional, cell-based
MDA-MB-231 [20] = experiment: Induction of endoplasmic reticulum stress in human MDA-MB-231 cells assessed as upregulation in ATF4 gene expression at 5 to 10 uM incubated for 24 to 48 hrs by RT-PCR analysis; format: functional, cell-based; details: dose 5-10 µM, time 24-48 hrs
[21] = target: Poly [ADP-ribose] polymerase 1 (Homo sapiens) (UniProt P09874); experiment: Induction of PARP1 degradation in triple negative human MDA-MB-468 cells assessed as fold change in PARP1 protein expression at 5 uM incubated for 48 hrs by Western blot analysis relative to control; format: cell-based
MDA-MB-231 [22] = experiment: Induction of endoplasmic reticulum stress in human MDA-MB-231 cells assessed as increase in CHOP protein expression at 5 uM measured after 24 to 72 hrs by Western blot analysis; format: functional, cell-based; details: time 24-72 hrs
[23] = target: Poly [ADP-ribose] polymerase 1 (Homo sapiens) (UniProt P09874); experiment: Induction of PARP1 degradation in human MDA-MB-231 cells assessed as fold change in PARP1 protein expression at 5 uM incubated for 48 hrs in presence of pan-caspase inhibitor, Z-VAD-FMK by Western blot analysis; format: cell-based
MDA-MB-468 [24] = experiment: Induction of endoplasmic reticulum stress in human MDA-MB-468 cells assessed as increase in XBP-1s protein expression at 5 uM incubated for 48 hrs by Western blot analysis; format: functional, cell-based
[25] = target: Poly [ADP-ribose] polymerase 1 (Homo sapiens) (UniProt P09874); experiment: Induction of PARP1 degradation in triple negative human MDA-MB-231 cells assessed as fold change in PARP1 protein expression at 5 uM incubated for 48 hrs by Western blot analysis relative to control; format: cell-based
MDA-MB-231 [26] = experiment: Induction of autophagy in human MDA-MB-231 cells assessed as upregulation in LC3B protein expression at 5 uM measured after 48 to 72 hrs by Western blot analysis; format: functional, cell-based; details: time 48-72 hrs
MDA-MB-231 [27] = experiment: Induction of autophagy in human MDA-MB-231 cells assessed as upregulation in LC3B gene expression at 5 to 10 uM measured after 24 to 48 hrs by RT-PCR analysis; format: functional, cell-based; details: dose 5-10 µM, time 24-48 hrs
[28] = target: Poly [ADP-ribose] polymerase 1 (Homo sapiens) (UniProt P09874); experiment: Induction of PARP1 degradation in human MDA-MB-231 cells at 5 uM pretreated for 2 hrs with proteasome inhibitor, carfilzomib for 2 hrs followed by incubation with compound for 48 hrs by immunoblotting analysis; format: cell-based

O=C(CC1c2ccccc2-c2ccccc21)N1CCN(C(=O)c2cc(Cc3n[nH]c(=O)c4ccccc34)ccc2F)CC1
Activity (MDA-MB-231 [1]): Active
fold change (FC) [2]: 0.8
Activity (MDA-MB-231 [3]): Active
Activity (MDA-MB-231 [4]): Active
Activity (MDA-MB-231 [5]): Active
Activity (MDA-MB-231 [6]): Active
fold change (FC) [7]: 0.4
Activity [8]: inactive
fold change (FC) [9]: 0.6
fold change (FC) [10]: 0.8
fold change (FC) [11]: 0.3
Activity (MDA-MB-231 [12]): Active
fold change (FC) [13]: 0.1
Activity (MDA-MB-468 [14]): Active
Activity (MDA-MB-468 [15]): Active
Activity (MDA-MB-231 [16]): Active
IC50 (MDA-MB-468 [17]): 5.72 µM
Activity [18]: 60%
Activity (MDA-MB-468 [19]): Active
Activity (MDA-MB-231 [20]): Active
fold change (FC) [21]: 0.3
Activity (MDA-MB-231 [22]): Active
fold change (FC) [23]: 0.3
Activity (MDA-MB-468 [24]): Active
fold change (FC) [25]: 0.1
Activity (MDA-MB-231 [26]): Active
Activity (MDA-MB-231 [27]): Active
Activity [28]: inactive
